Test system: Pythium ultimum
Assay: Control test against seedling blight fungus (Pythium ultimum)
Assay type: cell-based
Conditions: 1 μL of 500 ppm DMSO solution + 150 μL PDB medium with spores, 96 well plate, 23° C., 5 days, absorbance at 550 nm
Protocol: The untreated well represents a test well in which the procedures were carried out under the same conditions as those described in the Test Example except that dimethyl sulfoxide was dispensed in place of a diluted dimethyl sulfoxide solution containing the Present compound. The Present compound was diluted with dimethyl sulfoxide to obtain a diluted solution containing 500 ppm of the compound, 1 μL of the diluted solution was dispensed into a titer plate (96 well), and thereto was then dispensed 150 μL of a potato dextrose broth medium (PDB medium) to which spores of Pythium ultimum were inoculated in advance. This plate was cultured at 23° C. for 5 days, thereby allowing Pythium ultimum to undergo proliferation, and the absorbance at 550 nm of each well of the titer plate was then measured to obtain a value as a degree of growth of Pythium ultimum. As a result, the degree of growth in the well treated with the Present compound was 50% or less relative to the degree of growth in the untreated well.

Question: CC1CC(S(C)(=O)=O)C(O)(c2ccccc2)CC1=O (stereo not shown) [Present compound] was tested. Which “degree of growth relative to the degree of growth in the untreated well” value did it give?
Answer: Its value is ≤ 50%.

From patent US20260262639A1, “PHENYLCYCLOHEXANONE COMPOUND AND USE THEREFOR” (SUMITOMO CHEMICAL COMPANY, LIMITED, priority 2023, published 2026)
